This data set in a line: Particle size by laser diffraction particle size distribution meter (dry method). It is filed as physicochemical. The note with it: HELOS&RODOS, drug substance used in the Examples. The text has this:
The above-mentioned particle sizes (undersize D50% particle size, undersize D90% particle size etc.) are values measured using a laser diffraction particle size distribution meter (dry method). For example, when a laser diffraction particle size distribution measurement apparatus HELOS & RODOS manufactured by Sympatec GmbH is used, measurement can be performed by setting the measurement range to R3 and the indication basis of the particle amount to volume basis.
The particle size of 3/2 fumarate of compound A used in the following Examples was 0.5-3 μm for undersize D50% and 1-12 μm for undersize D90% particle size, as measured by a dry method using a laser diffraction particle size distribution measurement apparatus, HELOS&RODOS, manufactured by Sympatec GmbH.

The values below come from patent publication US8673353B2, “Tablet having improved elution properties” (Dainippon Sumitomo Pharma Co., Ltd, priority 2008, dated 2014).

Structures can show the parent of a compound that is named as a salt.

As to `O=C1Nc2ccccc2C(c2ccccc2)N1C1CCN(Cc2cccc(OC(F)(F)F)c2)CC1` (single isomer, unassigned; (+)) [3/2 fumarate of compound A, (+)-3-{1-[3-(trifluoromethoxy)benzyl]piperidin-4-yl}-4-phenyl-3,4-dihydro-2(1H)-quinazolinone], the “undersize D50% particle size” value was 0.5-3 μm and the “undersize D90% particle size” value is reported as 1-12 μm.
